From patent EP0623592B1, “Peptide analogs as irreversible interleukin-1beta protease inhibitors” (VERTEX PHARMACEUTICALS INCORPORATED, priority 1993, dated 1994) come the findings set out here.

The IC50 is the midpoint of a concentration-inhibition curve. High values mean weaker potency, low ones greater potency.

The target in this assay is T1, IL-1β protease (Homo sapiens, UniProt P29466).
T1 construct: Partially purified IL-1β protease is stored at -80°C
T1 sequence (P29466 120-297 limits assumed): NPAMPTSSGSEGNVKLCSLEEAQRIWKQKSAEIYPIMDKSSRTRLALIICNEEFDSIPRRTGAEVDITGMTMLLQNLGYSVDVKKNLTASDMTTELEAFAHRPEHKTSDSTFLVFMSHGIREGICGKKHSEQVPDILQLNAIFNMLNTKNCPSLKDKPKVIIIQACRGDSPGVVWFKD
T1 sequence (P29466 317-404 limits assumed): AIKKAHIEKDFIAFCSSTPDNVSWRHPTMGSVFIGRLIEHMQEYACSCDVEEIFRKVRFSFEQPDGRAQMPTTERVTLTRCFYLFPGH
The experiment in a line: IL-1β protease inhibition assay (HPLC readout of TRITC-AYVHDAPVRS-NH2 substrate cleavage). In kind it is biochemical. The settings on record: partially purified IL-1β protease; 15 minutes preincubation with inhibitor at 37°C; substrate 67 µM; 60 minutes at 37°C. As for the experimental part:
Compounds of the present invention were tested for IL-1β protease inhibition activity according to the following protocol: Partially purified IL-1β protease is stored at -80°C, thawed on ice, and preincubated for 10 minutes at 37°C with 2.5 mM dithiothreitol in a buffer solution containing 10 mM Tris-HCI (pH 8.0) and 25% (v/w) glycerol. Inhibitors are prepared as stock solutions in dimethyl sulfoxide (DMSO). The protease is preincubated with inhibitor in a volume of 20 µl in a 1.5 ml polypropylene microcentrifuge tube for 15 minutes at 37°C. The volume of compound added to the assay is adjusted to yield a DMSO concentration in the preincubation of <15% (v/v). The enzyme assay is then initiated by the addition of substrate (TRITC-AYVHDAPVRS-NH2) to yield a final concentration of 67 µM in a final volume of 30 µl. The reactions are carried out for 60 minutes at 37°C in the dark and are terminated by the addition of 10 µl of 10% trifluoroacetic acid (TFA). Following the addition of 115 µl of 0.1% TFA, the samples are analyzed by high pressure liquid chromatography using a reverse phase (C18) column and elution with an acetonitrile/water/TFA gradient. Substrate and product are monitored by their absorbance at 550 nm and elute at 4.2 and 5.2 minutes, respectively.
`COC(=O)N[C@@H](CC(=O)O)C(=O)COC(=O)c1c(Cl)cccc1Cl` [Example 67, N-Methoxycarbonyl-L-aspartic acid 2,6-dichlorobenzoyloxymethyl ketone] displayed an IC50 of 80 nM. This counts as double-digit nanomolar. In the case of `COC(=O)N[C@@H](C)C(=O)N[C@@H](CC(=O)O)C(=O)COC(=O)c1c(Cl)cccc1Cl` [Example 54, N-Methoxycarbonyl-L-alanine-L-aspartic acid 2,6-dichlorobenzoyloxymethyl ketone], the IC50 worked out at 60 nM. `O=C(O)C[C@H](NC(=O)OCc1ccccc1)C(=O)COc1c(Cl)cccc1Cl` [Example 41, N-Benzyloxycarbonyl-L-aspartic acid 2,6-dichlorophenoxymethylketone] returned an IC50 of 100 nM. As for `COC(=O)N[C@@H](Cc1ccccc1)C(=O)N[C@@H](CC(=O)O)C(=O)COC(=O)c1c(Cl)cccc1Cl` [Example 57, N-Methoxycarbonyl-L-phenylalanine-L-aspartic acid 2,6-dichlorobenzoyloxymethyl ketone], 70 nM corresponded to half-maximal inhibition (IC50).

Turning to `O=C(O)C[C@H](NC(=O)OCc1ccccc1)C(=O)COC(=O)c1c(C(F)(F)F)cccc1C(F)(F)F` [Example 40, N-Benzyloxycarbonyl-L-aspartic acid 2,6-ditrifluoromethyl benzoyloxymethyl ketone], the 50% inhibitory concentration (IC50) was 100 nM. The IC50 values of the last two compounds are within 1.5-fold of each other. `O=C(O)C[C@H](NC(=O)OCc1ccccc1)C(=O)COC(=O)c1c(Cl)cccc1Cl` [Example 38, N-Benzyloxycarbonyl-L-Aspartic Acid 2,6-Dichlorobenzoyloxymethyl Ketone]: the IC50 turned out to be 50 nM.
